From the NIST ThermoML archive (doi:10.1021/je034203p)

Columns and labels:
[1] = 298.15 K, 101.3 kPa, Liquid; for viscosity: Capillary tube (Ostwald / Ubbelohde) method
[2] = xn = mol fraction of the nth substance listed; settings: 298.15 K, 101.3 kPa, Liquid; for viscosity: Capillary tube (Ostwald / Ubbelohde) method

ClC(Cl)(Cl)Cl [tetrachloromethane]
[1]
Settings | mass density [kg/m3] | viscosity [mPa·s]
– | 1586.1 | 0.9096

CCC(C)O (configuration not stated) [butan-2-ol]
[1]
Settings | mass density [kg/m3] | viscosity [mPa·s]
– | 804.8 | 3.103

CCO [ethanol]
[1]
Settings | mass density [kg/m3] | viscosity [mPa·s]
– | 787.4 | 1.112

ClC(Cl)=C(Cl)Cl [tetrachloroethene]
[1]
Settings | mass density [kg/m3] | viscosity [mPa·s]
– | 1610.2 | 0.8474

ClC=C(Cl)Cl [trichloroethene]
[1]
Settings | mass density [kg/m3] | viscosity [mPa·s]
– | 1455.7 | 0.551

CC(C)O [propan-2-ol]
[1]
Settings | mass density [kg/m3] | viscosity [mPa·s]
– | 784.3 | 2.044

c1ccccc1 [benzene]
[1]
Settings | mass density [kg/m3] | viscosity [mPa·s]
– | 869.7 | 0.608

CC(C)=O [acetone]
[1]
Settings | mass density [kg/m3] | viscosity [mPa·s]
– | 780.8 | 0.3121

COC(C)=O [methyl ethanoate]
[1]
Settings | mass density [kg/m3] | viscosity [mPa·s]
– | 923.9 | 0.3711

ClC=C(Cl)Cl [trichloroethene] + CC(C)O
[2]
Settings | mass density [kg/m3] | viscosity [mPa·s]
x1 = 0.0866 | 850.4 | 1.764
x1 = 0.1754 | 916.6 | 1.514
x1 = 0.2667 | 982.1 | 1.306
x1 = 0.3613 | 1047.6 | 1.119
x1 = 0.4594 | 1113.9 | 0.9582
x1 = 0.5602 | 1180.9 | 0.8218
x1 = 0.665 | 1249.2 | 0.7173
x1 = 0.7724 | 1316.8 | 0.6451
x1 = 0.8846 | 1385.9 | 0.6004
x1 = 1 | 1455.7 | 0.551

Cc1ccccc1 [toluene]
[1]
Settings | mass density [kg/m3] | viscosity [mPa·s]
– | 860.5 | 0.5641

ClC(Cl)=C(Cl)Cl [tetrachloroethene] + CCC(C)O
[2]
Settings | mass density [kg/m3] | viscosity [mPa·s]
x1 = 0.0903 | 883.6 | 2.66
x1 = 0.1825 | 962.6 | 2.28
x1 = 0.2769 | 1042.5 | 1.944
x1 = 0.3734 | 1121.1 | 1.667
x1 = 0.4718 | 1201.2 | 1.453
x1 = 0.5733 | 1281.9 | 1.262
x1 = 0.6759 | 1362.6 | 1.119
x1 = 0.7817 | 1444.3 | 1.005
x1 = 0.8891 | 1525.8 | 0.9029
x1 = 1 | 1610.2 | 0.8474

ClC=C(Cl)Cl [trichloroethene] + CCCCO
[2]
Settings | mass density [kg/m3] | viscosity [mPa·s]
x1 = 0.1018 | 870 | 2.098
x1 = 0.2033 | 934.3 | 1.734
x1 = 0.3038 | 997.5 | 1.429
x1 = 0.4042 | 1061.9 | 1.19
x1 = 0.5046 | 1126.5 | 1.008
x1 = 0.6045 | 1191.4 | 0.8696
x1 = 0.7042 | 1257 | 0.7737
x1 = 0.8025 | 1321.9 | 0.6878
x1 = 0.9014 | 1388.3 | 0.6227
x1 = 1 | 1455.7 | 0.551

ClC(Cl)=C(Cl)Cl [tetrachloroethene] + CCC(C)=O
[2]
Settings | mass density [kg/m3] | viscosity [mPa·s]
x1 = 0.0888 | 875.6 | 0.4563
x1 = 0.1798 | 955.1 | 0.5095
x1 = 0.2732 | 1034.4 | 0.5626
x1 = 0.3692 | 1114.1 | 0.6147
x1 = 0.4672 | 1193.9 | 0.6642
x1 = 0.5688 | 1275.5 | 0.7069
x1 = 0.6719 | 1356.5 | 0.7447
x1 = 0.7786 | 1441.7 | 0.7802
x1 = 0.8873 | 1524.2 | 0.8161
x1 = 1 | 1610.2 | 0.8474

ClC=C(Cl)Cl [trichloroethene] + CCCO
[2]
Settings | mass density [kg/m3] | viscosity [mPa·s]
x1 = 0.0848 | 864.2 | 1.705
x1 = 0.1725 | 928.6 | 1.486
x1 = 0.2627 | 992.9 | 1.281
x1 = 0.3567 | 1058.3 | 1.099
x1 = 0.4541 | 1122.4 | 0.9476
x1 = 0.5556 | 1188.3 | 0.8226
x1 = 0.6604 | 1254.3 | 0.7262
x1 = 0.7691 | 1320.6 | 0.6463
x1 = 0.8823 | 1387.5 | 0.5848
x1 = 1 | 1455.7 | 0.551

CCO [ethanol] + ClC(Cl)=C(Cl)Cl
[2], x2 = 0
Settings | mass density [kg/m3] | viscosity [mPa·s]
– | 787.4 | 1.112

c1ccccc1 [benzene] + ClC(Cl)=C(Cl)Cl
[2], x2 = 0
Settings | mass density [kg/m3] | viscosity [mPa·s]
– | 869.7 | 0.608

ClC=C(Cl)Cl [trichloroethene] + CCC(C)O
[2]
Settings | mass density [kg/m3] | viscosity [mPa·s]
x1 = 0.102 | 868.5 | 2.502
x1 = 0.2035 | 932.3 | 2.019
x1 = 0.304 | 996.3 | 1.641
x1 = 0.4049 | 1061.2 | 1.344
x1 = 0.505 | 1125.4 | 1.128
x1 = 0.6051 | 1190.1 | 0.9463
x1 = 0.7042 | 1255.7 | 0.8155
x1 = 0.8033 | 1322 | 0.7014
x1 = 0.9014 | 1388.3 | 0.6101
x1 = 1 | 1455.7 | 0.551

ClC=C(Cl)Cl [trichloroethene] + c1ccccc1
[2]
Settings | mass density [kg/m3] | viscosity [mPa·s]
x1 = 0.0997 | 923.8 | 0.5937
x1 = 0.1995 | 981.7 | 0.584
x1 = 0.2988 | 1037.2 | 0.5761
x1 = 0.3987 | 1094.6 | 0.5682
x1 = 0.4986 | 1152.3 | 0.5621
x1 = 0.5991 | 1211 | 0.5573
x1 = 0.6991 | 1269.8 | 0.5573
x1 = 0.7989 | 1330.3 | 0.5517
x1 = 0.8998 | 1391.9 | 0.5499
x1 = 1 | 1455.7 | 0.551

ClC=C(Cl)Cl [trichloroethene] + CCOC(C)=O
[2]
Settings | mass density [kg/m3] | viscosity [mPa·s]
x1 = 0.1086 | 944.2 | 0.4658
x1 = 0.2151 | 998.6 | 0.5023
x1 = 0.3189 | 1052.8 | 0.5302
x1 = 0.4219 | 1108.6 | 0.5564
x1 = 0.5226 | 1163.7 | 0.5685
x1 = 0.6215 | 1220.2 | 0.5705
x1 = 0.7185 | 1277.3 | 0.5681
x1 = 0.8143 | 1335.6 | 0.563
x1 = 0.908 | 1393.5 | 0.5589
x1 = 1 | 1455.7 | 0.551

COC(C)=O [methyl ethanoate] + ClC(Cl)=C(Cl)Cl
[2], x2 = 0
Settings | mass density [kg/m3] | viscosity [mPa·s]
– | 923.9 | 0.3711

CO [methanol] + ClC(Cl)=C(Cl)Cl
[2], x2 = 0
Settings | mass density [kg/m3] | viscosity [mPa·s]
– | 788.1 | 0.5482

CCCO [propan-1-ol]
[1]
Settings | mass density [kg/m3] | viscosity [mPa·s]
– | 800 | 1.954

CCOC(C)=O [ethyl acetate]
[1]
Settings | mass density [kg/m3] | viscosity [mPa·s]
– | 894 | 0.4274

CC(C)=O [acetone] + ClC=C(Cl)Cl
[2], x2 = 0
Settings | mass density [kg/m3] | viscosity [mPa·s]
– | 780.8 | 0.3121

CCC(C)=O [butanone] + ClC(Cl)=C(Cl)Cl
[2], x2 = 0
Settings | mass density [kg/m3] | viscosity [mPa·s]
– | 797.4 | 0.4011

CCC(C)=O [butanone]
[1]
Settings | mass density [kg/m3] | viscosity [mPa·s]
– | 797.4 | 0.4011

CO [methanol]
[1]
Settings | mass density [kg/m3] | viscosity [mPa·s]
– | 788.1 | 0.5482

CCCCO [butan-1-ol]
[1]
Settings | mass density [kg/m3] | viscosity [mPa·s]
– | 806.3 | 2.538

ClC(Cl)=C(Cl)Cl [tetrachloroethene] + ClC(Cl)(Cl)Cl
[2]
Settings | mass density [kg/m3] | viscosity [mPa·s]
x1 = 0.0946 | 1583.5 | 0.8943
x1 = 0.1904 | 1582.4 | 0.8803
x1 = 0.2873 | 1582 | 0.8675
x1 = 0.3853 | 1582.5 | 0.8569
x1 = 0.4845 | 1583.8 | 0.8504
x1 = 0.5859 | 1587.2 | 0.8452
x1 = 0.6876 | 1590.1 | 0.8407
x1 = 0.7904 | 1596.8 | 0.8422
x1 = 0.8946 | 1603.2 | 0.8445
x1 = 1 | 1610.2 | 0.8474
